Columns and labels:
[1] = system: S. pneumoniae D39V; assay: fitness (endpoint OD595 vs no drug) (fraction); higher = more growth
Outline: (§1)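 Each well of a 384-well plate received 30 µl of culture at OD595 0.01, or 55 µl for S. pneumoniae. TSB, LB Lennox or CY served as media at 37 °C. OD595 was taken every 30 min for 14 h and corrected by subtracting the first reading. Fitness is the optical density at stationary-phase entry divided by the robust mean of no-drug controls, capped at 1.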

[2] = system: S. aureus Newman; assay: as above
Outline: as §1

[3] = system: B. subtilis 168; assay: Bliss interaction score (quartile over a dose matrix) (fitness difference); higher = more antagonism (negative = synergy)
Outline: (§2)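 Fitness was OD595 at entry into stationary phase divided by the plate's robust no-drug mean and capped at 1; single-drug fitness was inferred from combination data. The Bliss score is observed minus expected (product) fitness, summarised by quartiles over technical, biological and donor/recipient replicates.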

[4] = system: S. pneumoniae D39V; assay: as above
Outline: as §2

[5] = system: S. aureus Newman; assay: as above
Outline: as §2

[6] = system: S. aureus DSM 20231; assay: as above
Outline: as §2
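Throughout, for Bliss interaction score (quartile over a dose matrix): first quartile when negative (synergy) and third quartile when positive (antagonism).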

CC1=C(C(=O)O)N2C(=O)[C@@H](NC(=O)[C@H](N)c3ccccc3)[C@H]2SC1 [Cephalexin] + Cn1nnc(-c2ccc(-c3ccc(N4C[C@H](CO)OC4=O)cc3F)cn2)n1 [Tedizolid]
fitness, [1], one replicate
Settings | first compound 0.125 µg/mL | first compound 0.25 µg/mL | first compound 0.5 µg/mL
partner 0.125 µg/mL | 0.857 | 0.887 | 0.943
partner 0.25 µg/mL | 0.762 | 0.775 | 0.793
partner 0.5 µg/mL | 0.282 | 0.332 | 0.359

fitness
Settings | first compound 0.25 µg/mL | first compound 0.5 µg/mL | first compound 1 µg/mL | first compound 2 µg/mL | first compound 4 µg/mL
[1], partner 0.03125 µg/mL | – | – | 0.919 | 0.391 | 0.0118
[1], partner 0.0625 µg/mL | – | – | 0.928 | 0.53 | 0.113
[1], partner 0.125 µg/mL | – | – | 0.778 | 0.529 | 0.115
[2], partner 0.0625 µg/mL | 0.965 | 0.999 | 0.967 | – | –
[2], partner 0.125 µg/mL | 0.914 | 0.901 | 0.924 | – | –

Settings | Bliss interaction score
[3] | -0.0471
[4] | 0.304
[5] | 0.0857
[6] | -0.121

CNC(C)C1CCC(N)C(OC2C(N)CC(N)C(OC3OCC(C)(O)C(NC)C3O)C2O)O1 (stereo not drawn) [Gentamicin] + C/C(=C\C(=O)OCCCCCCCCC(=O)O)C[C@@H]1OC[C@H](C[C@@H]2O[C@H]2[C@@H](C)[C@H](C)O)[C@@H](O)[C@H]1O [Pseudomonic acid]
fitness, [1], main component drawn
Settings | first compound 2 µg/mL | first compound 4 µg/mL | first compound 8 µg/mL
partner 0.03 µg/mL | 0.922 | 0.923 | 0.881
partner 0.06 µg/mL | 0.727 | 0.769 | 0.673
partner 0.12 µg/mL | 0.396 | 0.393 | 0.323

fitness, [2], one replicate, main component drawn
Settings | first compound 1 µg/mL | first compound 2 µg/mL | first compound 4 µg/mL
partner 0.0313 µg/mL | 0.0474 | 0.0502 | 0.0545
partner 0.0625 µg/mL | 0.0311 | 0.0417 | 0.0388
partner 0.125 µg/mL | 0.0416 | 0.0314 | 0.0572

main component drawn
Settings | Bliss interaction score
[3] | 0.0456
[4] | -0.134
[5] | 0.0245
[6] | 0.0111

CNC(C)C1CCC(N)C(OC2C(N)CC(N)C(OC3OCC(C)(O)C(NC)C3O)C2O)O1 (stereo not drawn) [Gentamicin] + CN[C@H](CC(C)C)C(=O)N[C@H]1C(=O)N[C@@H](CC(N)=O)C(=O)N[C@H]2C(=O)N[C@H]3C(=O)N[C@H](C(=O)N[C@H](C(=O)O)c4cc(O)cc(O)c4-c4cc3ccc4O)[C@H](O)c3ccc(c(Cl)c3)Oc3cc2cc(c3O[C@@H]2O[C@H](CO)[C@@H](O)[C@H](O)[C@H]2O[C@H]2C[C@](C)(N)[C@H](O)[C@H](C)O2)Oc2ccc(cc2Cl)[C@H]1O [Vancomycin]
fitness, main component drawn
Settings | first compound 0.5 µg/mL | first compound 1 µg/mL | first compound 2 µg/mL | first compound 4 µg/mL | first compound 8 µg/mL
[1], partner 0.03125 µg/mL | – | – | 0.974 | ≥ 1 | 0.98
[1], partner 0.0625 µg/mL | – | – | 0.949 | 0.977 | 0.952
[1], partner 0.125 µg/mL | – | – | 0.891 | 0.922 | 0.925
[1], partner 0.25 µg/mL | – | – | 0.0786 | 0.0692 | 0.0847
[1], partner 0.5 µg/mL | – | – | 0.0666 | 0.052 | 0.0832
[2], partner 0.1875 µg/mL | 0.991 | 0.988 | – | – | –
[2], partner 0.375 µg/mL | 0.981 | 0.996 | ≥ 1 | – | –
[2], partner 0.75 µg/mL | 0.999 | ≥ 1 | ≥ 1 | – | –

fitness, [2], one replicate, main component drawn
Settings | first compound 0.375 µg/mL | first compound 0.75 µg/mL | first compound 1.5 µg/mL
partner 0.1875 µg/mL | ≥ 1 | ≥ 1 | 0.261
partner 0.375 µg/mL | ≥ 1 | ≥ 1 | 0.0474
partner 0.75 µg/mL | ≥ 1 | ≥ 1 | 0.0659

main component drawn
Settings | Bliss interaction score
[3] | 0.0451
[4] | -0.0655
[5] | 0.0347
[6] | 0.0984

CNC(C)C1CCC(N)C(OC2C(N)CC(N)C(OC3OCC(C)(O)C(NC)C3O)C2O)O1 (stereo not drawn) [Gentamicin] + Cn1nnc(-c2ccc(-c3ccc(N4C[C@H](CO)OC4=O)cc3F)cn2)n1 [Tedizolid]
fitness, main component drawn
Settings | partner 0.03125 µg/mL | partner 0.0625 µg/mL | partner 0.125 µg/mL | partner 0.25 µg/mL | partner 0.5 µg/mL
[1], first compound 2 µg/mL | 0.933 | 0.964 | 0.687 | 0.259 | 0.104
[1], first compound 4 µg/mL | 0.942 | 0.964 | – | 0.211 | 0.105
[1], first compound 8 µg/mL | 0.933 | 0.954 | – | 0.242 | 0.0993
[2], first compound 0.375 µg/mL | – | 0.965 | 0.862 | 0.176 | –
[2], first compound 0.5 µg/mL | – | 0.938 | 0.934 | 0.605 | –
[2], first compound 0.75 µg/mL | – | 0.969 | 0.771 | 0.131 | –
[2], first compound 1 µg/mL | – | 0.949 | 0.907 | – | –
[2], first compound 1.5 µg/mL | – | – | – | 0.15 | –
[2], first compound 2 µg/mL | – | 0.979 | 0.905 | 0.702 | –

main component drawn
Settings | Bliss interaction score
[3] | 0.228
[4] | -0.112
[5] | 0.0667
[6] | 0.0633
